From US11117900B2 (Vertex Pharmaceuticals Incorporated, priority 2012, dated 2021)

system: HCT116 colorectal cancer cells; experiment: Cisplatin sensitization assay (96 h MTS cell viability); format: cell-based; conditions: Cisplatin sensitization value;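 note: compound concentration needed to lower the IC50 of Cisplatin alone by a set fold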
Outline: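 The MTS viability read, after 1 h with reagent, followed 96 h of co-treatment at 37° C. in 5% CO2. Both compound and cisplatin were titrated 2-fold from a 10 μM top final concentration in a complete concentration matrix on HCT116 cells. Scores +++/++/+ reflect cisplatin sensitization value ranges.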

| Structure (SMILES) | Cisplatin Sensitization Assay |
| --- | --- |
| Nc1nn2cc(F)cnc2c1C(=O)Nc1cnccc1N1CCC(c2nnco2)CC1 [I-N-268, N-(4-(4-(1,3,4-oxadiazol-2-yl)piperidin-1-yl)pyridin-3-yl)-2-amino-6-fluoropyrazolo[1,5-a]pyrimidine-3-carboxamide] | +++ (Compounds with a Cisplatin sensitization value of <0.02 μM are marked with “+++.”) |
| CN1CCN(C(=O)c2ccc(-c3ccncc3NC(=O)c3c(N)nn4cc(F)cnc34)cc2)CC1 [I-C-25, 2-amino-6-fluoro-N-(4-(4-(4-methylpiperazine-1-carbonyl)phenyl)pyridin-3-yl)pyrazolo[1,5-a]pyrimidine-3-carboxamide] | +++ (Compounds with a Cisplatin sensitization value of <0.02 μM are marked with “+++.”) |
| Nc1nn2cc(F)cnc2c1C(=O)Nc1cnccc1N1CCC(C(=O)N2CCOCC2)CC1 [I-G-85, 2-amino-6-fluoro-N-(4-(4-(morpholine-4-carbonyl)piperidin-1-yl)pyridin-3-yl)pyrazolo[1,5-a]pyrimidine-3-carboxamide] | +++ (Compounds with a Cisplatin sensitization value of <0.02 μM are marked with “+++.”) |
| Nc1nn2cc(F)cnc2c1C(=O)Nc1cnccc1N1CCC(C(=O)N2CC3(CCO3)C2)CC1 [I-G-90, N-(4-(4-(1-oxa-6-azaspiro[3.3]heptane-6-carbonyl)piperidin-1-yl)pyridin-3-yl)-2-amino-6-fluoropyrazolo[1,5-a]pyrimidine-3-carboxamide] | +++ (Compounds with a Cisplatin sensitization value of <0.02 μM are marked with “+++.”) |
| CN1C(=O)CCC12CCN(c1ccncc1NC(=O)c1c(N)nn3cc(F)cnc13)CC2 [I-N-235, 2-amino-6-fluoro-N-(4-(1-methyl-2-oxo-1,8-diazaspiro[4.5]decan-8-yl)pyridin-3-yl)pyrazolo[1,5-a]pyrimidine-3-carboxamide] | ++ (Compounds with a Cisplatin sensitization value >0.02 μM but <0.2 μM are marked with “++.”) |
| CN1CCCCC1C(=O)N1CCN(c2c(F)cncc2NC(=O)c2c(N)nn3cc(F)cnc23)CC1 (stereo not shown) [I-N-173, 2-amino-6-fluoro-N-(5-fluoro-4-(4-(1-methylpiperidine-2-carbonyl)piperazin-1-yl)pyridin-3-yl)pyrazolo[1,5-a]pyrimidine-3-carboxamide] | +++ (Compounds with a Cisplatin sensitization value of <0.02 μM are marked with “+++.”) |
| Nc1nn2cc(Cl)cnc2c1C(=O)Nc1cnccc1N1CCN(C2CCC2)CC1 [I-N-48, 2-amino-6-chloro-N-(4-(4-cyclobutylpiperazin-1-yl)pyridin-3-yl)pyrazolo[1,5-a]pyrimidine-3-carboxamide] | ++ (Compounds with a Cisplatin sensitization value >0.02 μM but <0.2 μM are marked with “++.”) |
| Nc1nn2cc(F)cnc2c1C(=O)Nc1cnccc1N1CCN(C2COC2)CC1 [I-N-1, 2-amino-6-fluoro-N-(4-(4-(oxetan-3-yl)piperazin-1-yl)pyridin-3-yl)pyrazolo[1,5-a]pyrimidine-3-carboxamide] | ++ (Compounds with a Cisplatin sensitization value >0.02 μM but <0.2 μM are marked with “++.”) |
| Nc1nn2cc(F)cnc2c1C(=O)Nc1cncc(F)c1N1CCN(C2CCOCC2)CC1 [I-N-121, 2-amino-6-fluoro-N-(5-fluoro-4-(4-(tetrahydro-2H-pyran-4-yl)piperazin-1-yl)pyridin-3-yl)pyrazolo[1,5-a]pyrimidine-3-carboxamide] | +++ (Compounds with a Cisplatin sensitization value of <0.02 μM are marked with “+++.”) |
| C[N+]1([O-])CCc2c(cncc2NC(=O)c2c(N)nn3cc(F)cnc23)C1 (stereo not shown) [I-C-9, 5-(2-amino-6-fluoropyrazolo[1,5-a]pyrimidine-3-carboxamido)-2-methyl-1,2,3,4-tetrahydro-2,7-naphthyridine 2-oxide] | + (Compounds with a Cisplatin sensitization value >0.2 μM but <5 μM are marked with “+.”) |
| N#C[C@@H]1CCN(c2c(Cl)cncc2NC(=O)c2c(N)nn3cc(F)cnc23)C1 [I-N-285, (R)-2-amino-N-(5-chloro-4-(3-cyanopyrrolidin-1-yl)pyridin-3-yl)-6-fluoropyrazolo[1,5-a]pyrimidine-3-carboxamide] | ++ (Compounds with a Cisplatin sensitization value >0.02 μM but <0.2 μM are marked with “++.”) |
| Nc1nn2cc(Cl)cnc2c1C(=O)Nc1cnccc1Oc1cccnc1 [I-O-70, 2-amino-6-chloro-N-(4-(pyridin-3-yloxy)pyridin-3-yl)pyrazolo[1,5-a]pyrimidine-3-carboxamide] | +++ (Compounds with a Cisplatin sensitization value of <0.02 μM are marked with “+++.”) |
| Cc1cncc(NC(=O)c2c(N)nn3cc(F)cnc23)c1N1CCN(C2CCOCC2)CC1 [I-N-123, 2-amino-6-fluoro-N-(5-methyl-4-(4-(tetrahydro-2H-pyran-4-yl)piperazin-1-yl)pyridin-3-yl)pyrazolo[1,5-a]pyrimidine-3-carboxamide] | ++ (Compounds with a Cisplatin sensitization value >0.02 μM but <0.2 μM are marked with “++.”) |
| Nc1nn2cc(F)cnc2c1C(=O)Nc1cnccc1N1CCN(S(=O)(=O)C2CCOC2)CC1 (stereo not shown) [I-N-179, 2-amino-6-fluoro-N-(4-(4-((tetrahydrofuran-3-yl)sulfonyl)piperazin-1-yl)pyridin-3-yl)pyrazolo[1,5-a]pyrimidine-3-carboxamide] | +++ (Compounds with a Cisplatin sensitization value of <0.02 μM are marked with “+++.”) |
| COC1CN(C(=O)C2CCN(c3ccncc3NC(=O)c3c(N)nn4cc(F)cnc34)CC2)C1 [I-G-78, 2-amino-6-fluoro-N-(4-(4-(3-methoxyazetidine-1-carbonyl)piperidin-1-yl)pyridin-3-yl)pyrazolo[1,5-a]pyrimidine-3-carboxamide] | +++ (Compounds with a Cisplatin sensitization value of <0.02 μM are marked with “+++.”) |
| CCOc1ccncc1NC(=O)c1c(N)nn2cc(Cl)cnc12 [I-O-56, 2-amino-6-chloro-N-(4-ethoxypyridin-3-yl)pyrazolo[1,5-a]pyrimidine-3-carboxamide] | +++ (Compounds with a Cisplatin sensitization value of <0.02 μM are marked with “+++.”) |
| Nc1nn2cc(F)cnc2c1C(=O)Nc1cncc(Cl)c1N1CCC(O)C1 (stereo not shown) [I-N-284, 2-amino-N-(5-chloro-4-(3-hydroxypyrrolidin-1-yl)pyridin-3-yl)-6-fluoropyrazolo[1,5-a]pyrimidine-3-carboxamide] | +++ (Compounds with a Cisplatin sensitization value of <0.02 μM are marked with “+++.”) |
| CN(C)CCOc1cc(C(F)(F)F)ncc1NC(=O)c1c(N)nn2cc(Cl)cnc12 [I-O-71, 2-amino-6-chloro-N-(4-(2-(dimethylamino)ethoxy)-6-(trifluoromethyl)pyridin-3-yl)pyrazolo[1,5-a]pyrimidine-3-carboxamide] | + (Compounds with a Cisplatin sensitization value >0.2 μM but <5 μM are marked with “+.”) |
| Cc1nc(N2CCN(C)CC2)ccc1-c1ccncc1NC(=O)c1c(N)nn2cc(F)cnc12 [I-C-40, 2-amino-6-fluoro-N-(2-methyl-6-(4-methylpiperazin-1-yl)-[3,4′-bipyridin]-3′-yl)pyrazolo[1,5-a]pyrimidine-3-carboxamide] | +++ (Compounds with a Cisplatin sensitization value of <0.02 μM are marked with “+++.”) |
